Results published in ChEMBL document CHEMBL4138123, “Design, synthesis and biological evaluation of novel pyrazolochalcones as potential modulators of PI3K/Akt/mTOR pathway and inducers of apoptosis in breast cancer cells” (Eur J Med Chem, 2017).

Legend:
[1] = system: MCF7; test: Cytotoxicity against human MCF7 cells assessed as cell growth at 0.1 uM after 48 hrs by sulforhodamine B assay relative to control; assay type: functional; conditions: MCF7, 48 h, read-out: Activity
[2] = system: SW-620; test: Cytotoxicity against human SW620 cells assessed as cell growth at 10 uM after 48 hrs by sulforhodamine B assay relative to control; assay type: functional; conditions: SW-620, 48 h, read-out: Activity
[3] = system: SN12C; test: Cytotoxicity against human SN12C cells assessed as cell growth at 0.1 uM after 48 hrs by sulforhodamine B assay relative to control; assay type: functional; conditions: read-out: Activity
[4] = system: DU-145; test: Cytotoxicity against human DU145 cells assessed as cell growth at 100 uM after 48 hrs by sulforhodamine B assay relative to control; assay type: functional; conditions: DU-145, 48 h, read-out: Activity
[5] = system: MCF7; test: Cytotoxicity against human MCF7 cells assessed as growth inhibition after 48 hrs by MTT assay; assay type: functional, cell-based; conditions: MCF7, 48 h
[6] = system: SW-620; test: Cytotoxicity against human SW620 cells assessed as cell growth at 0.01 uM after 48 hrs by sulforhodamine B assay relative to control; assay type: functional; conditions: SW-620, 48 h, read-out: Activity
[7] = system: SK-MEL-28; test: Cytotoxicity against human SK-MEL-28 cells assessed as growth inhibition after 48 hrs by sulforhodamine B assay; assay type: functional; conditions: SK-MEL-28, 48 h
[8] = system: NCI-H322M; test: Cytotoxicity against human NCI-H322M cells assessed as cell growth at 1 uM after 48 hrs by sulforhodamine B assay relative to control; assay type: functional; conditions: read-out: Activity
[9] = system: BT-549; test: Cytotoxicity against human BT549 cells assessed as growth inhibition after 48 hrs by sulforhodamine B assay; assay type: functional; conditions: BT-549, 48 h
[10] = system: SK-MEL-5; test: Cytotoxicity against human SK-MEL-5 cells assessed as cell growth at 0.1 uM after 48 hrs by sulforhodamine B assay relative to control; assay type: functional; conditions: SK-MEL-5, 48 h, read-out: Activity
[11] = system: CCRF-CEM; test: Cytotoxicity against human CCRF-CEM cells assessed as cell growth at 0.01 uM after 48 hrs by sulforhodamine B assay relative to control; assay type: functional; conditions: read-out: Activity
[12] = system: HT-29; test: Cytotoxicity against human HT-29 cells assessed as cell growth at 1 uM after 48 hrs by sulforhodamine B assay relative to control; assay type: functional; conditions: HT-29, 48 h, read-out: Activity
[13] = system: HOP-62; test: Cytotoxicity against human HOP62 cells assessed as cell growth at 100 uM after 48 hrs by sulforhodamine B assay relative to control; assay type: functional; conditions: HOP-62, 48 h, read-out: Activity
[14] = system: HT-29; test: Cytotoxicity against human HT-29 cells assessed as cell growth at 10 uM after 48 hrs by sulforhodamine B assay relative to control; assay type: functional; conditions: HT-29, 48 h, read-out: Activity
[15] = system: RXF 393; test: Cytotoxicity against human RXF393 cells assessed as cell growth at 10 uM after 48 hrs by sulforhodamine B assay relative to control; assay type: functional; conditions: RXF 393, 48 h, read-out: Activity
[16] = system: OVCAR-3; test: Cytotoxicity against human OVCAR3 cells assessed as cell growth at 0.1 uM after 48 hrs by sulforhodamine B assay relative to control; assay type: functional; conditions: OVCAR-3, 48 h, read-out: Activity
[17] = system: HCT-116; test: Cytotoxicity against human HCT116 cells assessed as cell growth at 10 uM after 48 hrs by sulforhodamine B assay relative to control; assay type: functional; conditions: HCT-116, 48 h, read-out: Activity
[18] = system: CCRF-CEM; test: Cytotoxicity against human CCRF-CEM cells assessed as cell growth at 10 uM after 48 hrs by sulforhodamine B assay relative to control; assay type: functional; conditions: read-out: Activity
[19] = system: SNB-19; test: Cytotoxicity against human SNB19 cells assessed as cell growth at 0.1 uM after 48 hrs by sulforhodamine B assay relative to control; assay type: functional; conditions: SNB-19, 48 h, read-out: Activity
[20] = system: Malme-3M; test: Cytotoxicity against human MALME-3M cells assessed as cell growth at 0.1 uM after 48 hrs by sulforhodamine B assay relative to control; assay type: functional; conditions: read-out: Activity
[21] = system: IGROV-1; test: Cytotoxicity against human IGROV1 cells assessed as cell growth at 1 uM after 48 hrs by sulforhodamine B assay relative to control; assay type: functional; conditions: IGROV-1, 48 h, read-out: Activity
[22] = system: M14; test: Cytotoxicity against human M14 cells assessed as cell growth at 1 uM after 48 hrs by sulforhodamine B assay relative to control; assay type: functional; conditions: M14, 48 h, read-out: Activity
[23] = system: MOLT-4; test: Cytotoxicity against human MOLT4 cells assessed as cell growth at 100 uM after 48 hrs by sulforhodamine B assay relative to control; assay type: functional; conditions: MOLT-4, 48 h, read-out: Activity
[24] = system: HL-60(TB); test: Cytotoxicity against human HL-60(TB) cells assessed as cell growth at 100 uM after 48 hrs by sulforhodamine B assay relative to control; assay type: functional; conditions: HL-60, 48 h, read-out: Activity
[25] = system: Hs-578T; test: Cytotoxicity against human Hs 578T cells assessed as cell growth at 1 uM after 48 hrs by sulforhodamine B assay relative to control; assay type: functional; conditions: read-out: Activity
[26] = system: OVCAR-3; test: Cytotoxicity against human OVCAR3 cells assessed as cell growth at 1 uM after 48 hrs by sulforhodamine B assay relative to control; assay type: functional; conditions: OVCAR-3, 48 h, read-out: Activity
[27] = system: SK-MEL-28; test: Cytotoxicity against human SK-MEL-28 cells assessed as cell growth at 10 uM after 48 hrs by sulforhodamine B assay relative to control; assay type: functional; conditions: SK-MEL-28, 48 h, read-out: Activity
[28] = system: SW-620; test: Cytotoxicity against human SW620 cells assessed as cell growth at 100 uM after 48 hrs by sulforhodamine B assay relative to control; assay type: functional; conditions: SW-620, 48 h, read-out: Activity
[29] = system: COLO 205; test: Cytotoxicity against human COLO205 cells assessed as cell growth at 100 uM after 48 hrs by sulforhodamine B assay relative to control; assay type: functional; conditions: COLO 205, 48 h, read-out: Activity
[30] = system: IGROV-1; test: Cytotoxicity against human IGROV1 cells assessed as cell growth at 0.1 uM after 48 hrs by sulforhodamine B assay relative to control; assay type: functional; conditions: IGROV-1, 48 h, read-out: Activity
[31] = system: SF-268; test: Cytotoxicity against human SF268 cells assessed as cell growth at 0.01 uM after 48 hrs by sulforhodamine B assay relative to control; assay type: functional; conditions: SF-268, 48 h, read-out: Activity
[32] = system: NCI-H522; test: Cytotoxicity against human NCI-H522 cells assessed as cell growth at 10 uM after 48 hrs by sulforhodamine B assay relative to control; assay type: functional; conditions: NCI-H522, 48 h, read-out: Activity
[33] = system: SK-MEL-5; test: Cytotoxicity against human SK-MEL-5 cells assessed as growth inhibition after 48 hrs by sulforhodamine B assay; assay type: functional; conditions: SK-MEL-5, 48 h
[34] = system: UACC-62; test: Cytotoxicity against human UACC62 cells assessed as cell growth at 0.1 uM after 48 hrs by sulforhodamine B assay relative to control; assay type: functional; conditions: UACC-62, 48 h, read-out: Activity
[35] = system: OVCAR-4; test: Cytotoxicity against human OVCAR4 cells assessed as growth inhibition after 48 hrs by sulforhodamine B assay; assay type: functional; conditions: OVCAR-4, 48 h

| SMILES | growth at 0.1 µM [1] [%] | growth at 10 µM [2] [%] | growth at 0.1 µM [3] [%] | growth at 100 µM [4] [%] | IC50 [5] [µM] | growth at 0.01 µM [6] [%] | LC50 [7] [µM] | TGI [7] [µM] | growth at 1 µM [8] [%] | growth at 0.1 µM [10] [%] | growth at 0.01 µM [11] [%] | growth at 1 µM [12] [%] | growth at 100 µM [13] [%] | growth at 10 µM [14] [%] | growth at 10 µM [15] [%] | growth at 0.1 µM [16] [%] | growth at 10 µM [17] [%] | growth at 10 µM [18] [%] | growth at 0.1 µM [19] [%] | growth at 0.1 µM [20] [%] | also measured |
| --- | --- | --- | --- | --- | --- | --- | --- | --- | --- | --- | --- | --- | --- | --- | --- | --- | --- | --- | --- | --- | --- |
| COc1ccc(C(=O)/C=C/c2cc(-c3cc(OC)c(OC)c(OC)c3)n[nH]2)cc1OC | 91 | -77 | 94 | -89 | 0.51 | 101 | 6.25 | 3.34 | 83 | 96 | 95 | 88 | -98 | -94 | -98 | 100 | -65 | -26 | 93 | 92 | LC50 (concentration killing 50% of cells) [9]: 5.87 µM; TGI [9]: 2.9 µM; growth at 1 µM [21]: 96%; growth at 1 µM [22]: 94%; growth at 100 µM [23]: -23%; growth at 100 µM [24]: -51%; growth at 1 µM [25]: 91%; growth at 1 µM [26]: 91%; growth at 10 µM [27]: -88%; growth at 100 µM [28]: -67%; growth at 100 µM [29]: -75%; growth at 0.1 µM [30]: 96%; growth at 0.01 µM [31]: 93%; growth at 10 µM [32]: -95%; LC50 (concentration killing 50% of cells) [33]: 5.59 µM; TGI [33]: 3.03 µM; growth at 0.1 µM [34]: 95%; LC50 [35]: 49.9 µM; TGI [35]: 16.6 µM |
| COc1ccc(C(=O)/C=C/c2cc(-c3cc(OC)c(OC)c(OC)c3)n[nH]2)cc1 | 93 | -69 | 96 | -2 | 0.81 | 99 | 9.23 | 4.42 | 93 | 99 | 99 | 95 | -79 | -58 | -97 | 101 | -22 | -19 | 88 | 91 | TGI [9]: 3.86 µM; growth at 1 µM [21]: 101%; growth at 1 µM [22]: 99%; growth at 100 µM [23]: -4%; growth at 100 µM [24]: -31%; growth at 1 µM [25]: 96%; growth at 1 µM [26]: 89%; growth at 10 µM [27]: -55%; growth at 100 µM [28]: -39%; growth at 100 µM [29]: -81%; growth at 0.1 µM [30]: 102%; growth at 0.01 µM [31]: 91%; growth at 10 µM [32]: -73%; LC50 (concentration killing 50% of cells) [33]: 6.1 µM; TGI [33]: 3.24 µM; growth at 0.1 µM [34]: 100%; LC50 [35]: > 100 µM; TGI [35]: 8.32 µM |
| COc1cc(-c2cc(/C=C/C(=O)c3ccc4c(c3)OCO4)[nH]n2)cc(OC)c1OC | 94 | -9 | 96 | -15 | 0.9 | 99 | > 100 | 7.34 | 93 | 97 | 94 | 103 | -70 | -54 | -95 | 101 | -60 | -19 | 88 | 91 | LC50 (concentration killing 50% of cells) [9]: > 100 µM; growth at 1 µM [21]: 99%; growth at 1 µM [22]: 100%; growth at 100 µM [23]: -10%; growth at 100 µM [24]: -36%; growth at 1 µM [25]: 94%; growth at 1 µM [26]: 102%; growth at 10 µM [27]: -14%; growth at 100 µM [28]: 1%; growth at 100 µM [29]: -100%; growth at 0.1 µM [30]: 97%; growth at 0.01 µM [31]: 91%; growth at 10 µM [32]: -88%; LC50 (concentration killing 50% of cells) [33]: > 100 µM; TGI [33]: > 100 µM; growth at 0.1 µM [34]: 96%; LC50 [35]: > 100 µM; TGI [35]: > 100 µM |
